Reference: US10202360B2 (CELGENE QUANTICEL RESEARCH, INC., priority 2016, dated 2019)

Tests used:
CREBBP = CREBBP (Homo sapiens (Human), UniProt Q92793); test: In vitro enzyme inhibition assay - CREBBP inhibition (AlphaScreen, biotinylated H4-tetraacetyl peptide); type: binding
Outline: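 Displacement of 20 nM biotinylated tetraacetyl-H4 peptide from 50 nM E. coli-expressed His-CREBBP, measured by AlphaScreen after bead equilibration for 2 h.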

BRD4 = BRD4 (Homo sapiens (Human), UniProt O60885); test: In vitro enzyme inhibition assay - BRD4 inhibition (as described in U.S. Pat. No. 9,034,900); type: binding; conditions: Table 29; BRD4 BD1
[1] = Table 28, AlphaScreen, H4-tetraacetyl peptide

Sequence of CREBBP (Q92793 1081-1197): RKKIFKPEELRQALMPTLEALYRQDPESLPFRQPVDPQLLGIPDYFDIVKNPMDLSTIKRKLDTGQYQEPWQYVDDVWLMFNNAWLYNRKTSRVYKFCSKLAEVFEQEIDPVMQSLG

Row | SMILES | IC50 (CREBBP; [1]) [nM] | IC50 (CREBBP; Table 29) [nM] | IC50 (BRD4) [nM]
1 | Cc1cc(-c2cc(NS(=O)(=O)C3CCCC3)nc(Oc3ccc(F)cc3F)n2)cn(C)c1=O [Example 66, N-(2-(2,4-difluorophenoxy)-6-(1,5-dimethyl-6-oxo-1,6-dihydropyridin-3-yl)pyrimidin-4-yl)cyclopentanesulfonamide] | < 500 | < 500 | 500 to 5000
2 | CCS(=O)(=O)Nc1ncc(Oc2ccc(F)cc2F)c(-c2cc(C)c(=O)n(C)c2)n1 [N-(5-(2,4-difluorophenoxy)-4-(1,5-dimethyl-6-oxo-1,6-dihydropyridin-3-yl)-pyrimidin-2-yl)ethanesulfonamide] | – | > 5000 | < 500
3 | CCCCS(=O)(=O)Nc1cc(-c2ccc(=O)n(C)c2)nc(Oc2c(C)cccc2F)n1 [Example 113, Butane-1-sulfonic acid [2-(2-fluoro-6-methyl-phenoxy)-6-(1-methyl-6-oxo-1,6-dihydro-pyridin-3-yl)-pyrimidin-4-yl]-amide] | < 500 | < 500 | > 5000
4 | Cc1cc(-c2nc(NS(C)(=O)=O)ncc2Oc2ccc(F)cc2F)cn(C)c1=O [N-(5-(2,4-difluorophenoxy)-4-(1,5-dimethyl-6-oxo-1,6-dihydropyridin-3-yl)-pyrimidin-2-yl)methanesulfonamide] | – | > 5000 | < 500
5 | CCS(=O)(=O)Nc1ncc(Oc2ccc(F)cc2F)c(-c2cc(C)c(=O)n(CC3CC3)c2)n1 | – | > 5000 | < 500
6 | Cc1ccc(C)c(CNc2cc(-c3ccc(=O)n(C)c3)nc(Oc3c(C)cccc3F)n2)c1 [Example 301, 5-[6-(2,5-Dimethyl-benzylamino)-2-(2-fluoro-6-methyl-phenoxy)-pyrimidin-4-yl]-1-methyl-1H-pyridin-2-one] | < 500 | – | –
7 | COc1ccc(C#N)cc1Oc1nc(NS(=O)(=O)C(C)C)cc(-c2cc(C)c(=O)n(C)c2)n1 [Example 9, Propane-2-sulfonic acid [2-(5-cyano-2-methoxy-phenoxy)-6-(1,5-dimethyl-6-oxo-1,6-dihydro-pyridin-3-yl)-pyrimidin-4-yl]-amide] | < 500 | – | –
8 | CC(=O)OCCn1cc(-c2cc(NS(=O)(=O)C(C)C)nc(Oc3ccc(F)cc3F)n2)cc(C)c1=O [Example 51, Acetic acid 2-{5-[2-(2,4-difluoro-phenoxy)-6-(propane-2-sulfonylamino)-pyrimidin-4-yl]-3-methyl-2-oxo-2H-pyridin-1-yl}-ethyl ester] | 500 to 5000 | – | –
9 | Cn1cc(-c2cc3nc(n2)Oc2cc(ccc2Cl)OCC=CCCS(=O)(=O)N3)ccc1=O [Example 360, 5-(36-chloro-10,10-dioxido-2,4-dioxa-10-thia-11-aza-1(2,4)-pyrimidina-3(1,3)-benzenacycloundecaphan-6-en-1^6-yl)-1-methylpyridin-2(1H)-one] | < 500 | – | –
10 | CCCCS(=O)(=O)Nc1cc(-c2cc(C)c(=O)n(C)c2)nc(Oc2ccccc2C#N)n1 [Example 37, Butane-1-sulfonic acid [2-(2-cyano-phenoxy)-6-(1,5-dimethyl-6-oxo-1,6-dihydro-pyridin-3-yl)-pyrimidin-4-yl]-amide] | < 500 | – | –
11 | Cc1cccc(F)c1Oc1nc(-c2ccc(=O)n(C)c2)cc(N(C)Cc2ccccc2)n1 [Example 293, 5-[6-(Benzyl-methyl-amino)-2-(2-fluoro-6-methyl-phenoxy)-pyrimidin-4-yl]-1-methyl-1H-pyridin-2-one] | < 500 | – | –
12 | Cc1cccc(F)c1Oc1nc(NCc2ccccc2)cc(-c2cc(C)c(=O)n(C)c2)n1 [Example 296, 5-[6-Benzylamino-2-(2-fluoro-6-methyl-phenoxy)-pyrimidin-4-yl]-1,3-dimethyl-1H-pyridin-2-one] | < 500 | – | –

Continued, values first:

Row | IC50 (CREBBP; [1]) [nM] | IC50 (CREBBP; Table 29) [nM] | IC50 (BRD4) [nM] | SMILES
13 | < 500 | < 500 | > 5000 | CCCCS(=O)(=O)Nc1cc(-c2cc(C)c(=O)n(C)c2)nc(Oc2c(Cl)cccc2CC)n1 [Example 41, Butane-1-sulfonic acid [2-(2-chloro-6-ethyl-phenoxy)-6-(1,5-dimethyl-6-oxo-1,6-dihydro-pyridin-3-yl)-pyrimidin-4-yl]-amide]
14 | < 500 | < 500 | 500 to 5000 | Cc1cccc(Cl)c1Oc1nc(NS(=O)(=O)C(C)C)cc(-c2cc(C)c(=O)n(C)c2)n1 [Example 3, Propane-2-sulfonic acid [2-(2-chloro-6-methyl-phenoxy)-6-(1,5-dimethyl-6-oxo-1,6-dihydro-pyridin-3-yl)-pyrimidin-4-yl]-amide]
15 | < 500 | < 500 | > 5000 | CCCCS(=O)(=O)Nc1cc(-c2cc(Cl)c(=O)n(C)c2)nc(Oc2c(C)cccc2C)n1 [Example 87, N-(6-(5-chloro-1-methyl-6-oxo-1,6-dihydropyridin-3-yl)-2-(2,6-dimethylphenoxy)pyrimidin-4-yl)butane-1-sulfonamide]
16 | < 500 | < 500 | 500 to 5000 | CCCCS(=O)(=O)Nc1cc(-c2cc(C)c(=O)n(C)c2)nc(Oc2c(C)cccc2Cl)n1 [Example 14, Butane-1-sulfonic acid [2-(2-chloro-6-methyl-phenoxy)-6-(1,5-dimethyl-6-oxo-1,6-dihydro-pyridin-3-yl)-pyrimidin-4-yl]-amide]
17 | < 500 | < 500 | > 5000 | Cc1cc(Cl)cc(Cl)c1Oc1nc(NS(=O)(=O)C(C)C)cc(-c2cc(C)c(=O)n(C)c2)n1 [Example 33, Propane-2-sulfonic acid [2-(2,4-dichloro-6-methyl-phenoxy)-6-(1,5-dimethyl-6-oxo-1,6-dihydro-pyridin-3-yl)-pyrimidin-4-yl]-amide]
18 | < 500 | < 500 | > 5000 | CCCCS(=O)(=O)Nc1cc(-c2cc(C)c(=O)n(C)c2)nc(Oc2c(C)cccc2C)n1 [Example 72, N-(6-(1,5-dimethyl-6-oxo-1,6-dihydropyridin-3-yl)-2-(2,6-dimethylphenoxy)pyrimidin-4-yl)butane-1-sulfonamide]
19 | < 500 | < 500 | > 5000 | COc1cccc(C#N)c1Oc1nc(NS(=O)(=O)C(C)C)cc(-c2cc(C)c(=O)n(C)c2)n1 [Example 11, Propane-2-sulfonic acid [2-(2-cyano-6-methoxy-phenoxy)-6-(1,5-dimethyl-6-oxo-1,6-dihydro-pyridin-3-yl)-pyrimidin-4-yl]-amide]
20 | < 500 | – | – | CCCS(=O)(=O)Nc1cc(-c2cc(C)c(=O)n(C)c2)nc(Oc2c(C)cccc2F)n1 [Example 21, Propane-1-sulfonic acid [6-(1,5-dimethyl-6-oxo-1,6-dihydro-pyridin-3-yl)-2-(2-fluoro-6-methyl-phenoxy)-pyrimidin-4-yl]-amide]
21 | < 500 | – | – | Cc1cc(-c2cc(NS(=O)(=O)C3CC3)nc(Oc3ccc(F)cc3F)n2)cn(C)c1=O [Example 63, N-(2-(2,4-difluorophenoxy)-6-(1,5-dimethyl-6-oxo-1,6-dihydropyridin-3-yl)pyrimidin-4-yl)cyclopropanesulfonamide]
22 | < 500 | – | – | Cc1cccc(C)c1Oc1nc(NS(=O)(=O)CC2CC2)cc(-c2cc(C)c(=O)n(C)c2)n1 [Example 82, 1-cyclopropyl-N-(6-(1,5-dimethyl-6-oxo-1,6-dihydropyridin-3-yl)-2-(2,6-dimethylphenoxy)pyrimidin-4-yl)methanesulfonamide]
23 | < 500 | – | – | CCCS(=O)(=O)Nc1cc(-c2cc(C)c(=O)n(C)c2)nc(Oc2cnccc2C)n1 [Example 112, Propane-1-sulfonic acid [6-(1,5-dimethyl-6-oxo-1,6-dihydro-pyridin-3-yl)-2-(4-methyl-pyridin-3-yloxy)-pyrimidin-4-yl]-amide]
24 | < 500 | – | – | CCC[C@H](C)S(=O)(=O)Nc1cc(-c2cc(C)c(=O)n(C)c2)nc(Oc2c(C)cccc2Cl)n1 [Example 223, (S)-N-(2-(2-chloro-6-methylphenoxy)-6-(1,5-dimethyl-6-oxo-1,6-dihydropyridin-3-yl)pyrimidin-4-yl)pentane-2-sulfonamide]
25 | < 500 | – | – | CCCS(=O)(=O)Nc1cc(-c2cc(C)c(=O)n(C)c2)nc(Oc2cc(C(C)C)ccc2Cl)n1 [Example 39, Propane-1-sunnic acid [2-(2-chloro-5-isopropyl-phenoxy)-6-(1,5-dimethyl-6-oxo-1,6-dihydro-pyridin-3-yl)-pyrimidin-4-yl]-amide]
